For 16 compounds, IC50 results are on record in patent US4873253A, “Phenylalanine derivative and proteinase inhibitor” (Okamoto; Shosuke, priority 1987, dated 1989).

Experiment [1] deals with T1, human plasmin (Homo sapiens, UniProt P00747). The experiment in a line: Antiplasmin activity: inhibition of S-2251 decomposition. In kind it is biochemical. Conditions: Table 2; substrate S-2251, pH 7.4, 37° C. The method, then: An inhibitor sample is dissolved in a 0.05 M Tris-hydrochloric acid buffer solution (pH=7.4) to make the total volume to 400 μl. […] Then, 50 μl of a 0.2 casein unit/ml human plasmin is added and the mixture is incubated at a temperature of 37° C. for 4 minutes. Thereafter, the reaction is stopped by adding 50 μl of 50% acetic acid.
T1 sequence (P00747 581-810 limits assumed): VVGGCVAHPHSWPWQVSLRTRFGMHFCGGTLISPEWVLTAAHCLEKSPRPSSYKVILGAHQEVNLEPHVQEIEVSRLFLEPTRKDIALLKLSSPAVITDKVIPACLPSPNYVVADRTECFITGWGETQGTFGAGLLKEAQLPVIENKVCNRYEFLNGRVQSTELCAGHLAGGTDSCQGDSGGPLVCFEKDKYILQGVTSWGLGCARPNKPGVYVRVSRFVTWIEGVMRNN
T1 sequence (P00747 97-580 limits assumed): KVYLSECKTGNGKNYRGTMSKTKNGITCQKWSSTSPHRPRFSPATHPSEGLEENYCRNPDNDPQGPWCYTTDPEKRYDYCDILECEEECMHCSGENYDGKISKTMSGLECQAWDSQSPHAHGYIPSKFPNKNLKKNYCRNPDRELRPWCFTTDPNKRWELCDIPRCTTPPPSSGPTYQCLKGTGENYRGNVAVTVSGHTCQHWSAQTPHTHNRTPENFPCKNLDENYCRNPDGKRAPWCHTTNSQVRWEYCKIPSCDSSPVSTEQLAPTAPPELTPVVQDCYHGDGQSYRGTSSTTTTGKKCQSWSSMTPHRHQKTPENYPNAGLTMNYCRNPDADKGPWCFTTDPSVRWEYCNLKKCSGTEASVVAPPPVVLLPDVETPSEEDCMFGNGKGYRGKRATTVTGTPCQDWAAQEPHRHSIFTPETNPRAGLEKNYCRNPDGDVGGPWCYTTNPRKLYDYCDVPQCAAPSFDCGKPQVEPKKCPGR
Thus, the concentration I50 (μmol) of the inhibitor sample, at which the absorbance is one half (i.e., 1/2) of that obtained in the absence of the inhibitor, is determined.

Experiment [2] has as its target T1, human plasmin. The experiment in a line: Antiplasmin activity: inhibition of fibrin decomposition. In kind it is biochemical. Conditions: Table 2, pH 7.4, 37° C., read-out: Plasmin Fibrin I50 (concentration doubling fibrin dissolution time). As to the method: (i) Determination of inhibition activity for fibrin decomposition
An inhibitor sample is dissolved in a 0.18 M borate-physiological salt buffer solution (pH=7.4) to make the total volume to 600 μl. To this buffer solution, 200 μl of a 0.2% bovine fibrinogen, 100 μl of a 0.3 casein unit/ml human plasmin solution, and 100 μl of a 50 unit/ml bovine thrombin solution, all dissolved in the above-mentioned buffer, are added at a temperature of 37° C. in a constant temperature bath. Then, the dissolution time of the fibrin mass formed above is determined.

A further experiment deals with T2, bovine thrombin (Bos taurus, UniProt P00735).
T2 construct: a 0.2 unit/ml bovine thrombin solution
Put plainly: Antithrombin activity: inhibition of fibrin formation (fibrinogen). The class given is biochemical. The method, then: (i) Determination of inhibition activity against fibrin formation
An inhibitor sample is dissolved in a 0.18 M borate-physiological salt buffer solution (pH= 7.4) to make the total volume to 500 μl. […] Thus, a coagulation time is determined. The inhibitor concentration I50 (μmol), at which the coagulation time obtained in the absence of the inhibitor is extended twice, is determined.

The next experiment addresses T3, bovine trypsin (Bos taurus, UniProt P00760).
T3 sequence (P00760 24-246): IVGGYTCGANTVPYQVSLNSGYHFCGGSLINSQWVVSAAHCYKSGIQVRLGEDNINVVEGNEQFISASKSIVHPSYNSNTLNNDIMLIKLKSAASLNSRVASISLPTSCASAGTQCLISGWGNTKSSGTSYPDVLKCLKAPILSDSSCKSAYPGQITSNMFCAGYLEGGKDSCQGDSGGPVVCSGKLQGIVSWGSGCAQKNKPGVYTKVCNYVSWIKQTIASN
Put plainly: Antitrypsin activity: inhibition of S-2238 decomposition. The class given is biochemical. Conditions: Table 2; substrate S-2238, pH 8.1, 37° C.; read-out: Trypsin S-2238 I50. As to the method:
Determination of inhibition activity against S-2238 decomposition
An inhibitor sample is dissolved in a 0.05 M Tris-imidazole buffer solution (pH=8.1) and 125 μl of a 1 mM S-2238 solution is added to make the total volume to 1.20 ml. The mixture is incubated at a temperature of 37° C. for 5 minutes in a constant temperature bath. To this mixture, 0.05 ml of bovine trypsin is added and the absorbance, at 405 nm, of the p-nitroaniline formed per minute is determined at a temperature of 37° C. by using the so-called initial velocity method. Thus, the concentration I50 (μmol) of a inhibitor sample, at which the absorbance is one half (i.e., 1/2) of that obtained in the absence of the inhibitor sample, is determined.

The target in the next experiment is human plasma kallikrein (Homo sapiens, UniProt P03952). Put plainly: Anti-plasma kallikrein activity: inhibition of S-2302 decomposition. The class given is biochemical. Conditions: Table 2; substrate S-2302, pH 7.8, 37° C.; read-out: Plasma Kallikrein S-2302 I50. The method, then:
Determination of inhibition activity for S-2302 decomposition
(§1) An inhibitor sample is dissolved in a 0.05 M Tris-hydrochloric acid buffer solution (pH=7.8) to make the total volume to 400 μl. To this solution, 50 μl of a 2 mM S-2302 solution is added and the mixture is incubated at a temperature of 37° C. for 5 minutes in a constant temperature bath. Then, 50 μl of a 0.12 unit/ml human plasma kallikrein is added and the mixture is incubated at a temperature of 37° C. for 5 minutes. Thereafter, 50 μl of 50% acetic acid is added to terminate the reaction. The absorbance of the p-nitroaniline formed in the reaction mixture is measured at 405 nm. Thus, the concentration I50 (μmol) of the inhibitor sample, at which the absorbance is one half (i.e., 1/2) of that obtained in the absence of the inhibitor sample, is determined.

The next experiment deals with human urokinase (Homo sapiens, UniProt P00749). The experiment in a line: biochemical. Particulars: read-out: Urokinase S-2444 I50. The method, then:
Determination of inhibition activity for S-2444 decomposition
as §1, with “solution (pH=8.8)” for “solution (pH=7.8)”, “a 1” for “a 2”, “mM S-2444” for “mM S-2302”, “a 500” for “a 0.12”, “human urokinase” for “human plasma kallikrein”

Where [3] appears, read: Table 2, bovine fibrinogen, pH 7.4, 37° C., read-out: Thrombin Fibrinogen I50 (concentration doubling coagulation time).
Where [4] appears, read: Table 2, substrate S-2444, pH 8.8, 37° C.

SMILES strings stand for the structures. Counter-ions that a name gives are not always drawn. Like-named read-outs stand apart in the source and are kept apart here. Where only a bound is given, the exact number is not on record here.

human plasma kallikrein, sequence (P03952 391-638 limits assumed): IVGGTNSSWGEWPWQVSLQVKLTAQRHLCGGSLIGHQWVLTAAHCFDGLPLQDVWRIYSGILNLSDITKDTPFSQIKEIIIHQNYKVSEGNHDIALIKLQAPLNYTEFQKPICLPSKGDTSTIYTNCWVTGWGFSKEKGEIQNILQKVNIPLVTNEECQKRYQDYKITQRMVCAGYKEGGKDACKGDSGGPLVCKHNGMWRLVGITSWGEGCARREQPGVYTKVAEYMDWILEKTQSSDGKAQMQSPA
human plasma kallikrein, sequence (P03952 20-390 limits assumed): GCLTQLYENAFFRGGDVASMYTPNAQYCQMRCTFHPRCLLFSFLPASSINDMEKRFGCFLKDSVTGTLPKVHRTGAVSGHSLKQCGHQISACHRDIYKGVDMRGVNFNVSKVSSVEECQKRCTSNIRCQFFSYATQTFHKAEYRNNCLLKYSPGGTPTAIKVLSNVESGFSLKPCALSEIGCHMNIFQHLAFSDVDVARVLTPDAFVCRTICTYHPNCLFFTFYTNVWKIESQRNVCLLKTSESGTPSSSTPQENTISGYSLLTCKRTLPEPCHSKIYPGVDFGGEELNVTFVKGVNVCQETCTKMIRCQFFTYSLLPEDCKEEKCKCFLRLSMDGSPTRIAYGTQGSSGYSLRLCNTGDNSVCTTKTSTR

As for `NC[C@H]1CC[C@H](C(=O)NC(Cc2cccc(Oc3ccccc3)c2)C(=O)Nc2ccncn2)CC1` (mixture of isomers) [Compound 12, N-(trans-4-aminomethylcyclohexylcarbonyl)-3-phenoxy-DL-phenylalanine 4-pyrimidylamide dihydrochloride], the IC50 is 1000 µM at human plasmin [1]; 130 µM at human plasmin [2]; more than 1000 µM on bovine thrombin (setting [3]); more than 150 µM on bovine trypsin; 55 µM at human plasma kallikrein; more than 1000 µM at human urokinase (setting [4]).

As for `COCCCNC(=O)C(Cc1cccc(Oc2ccc(Br)cn2)c1)NC(=O)[C@H]1CC[C@H](CN)CC1` (mixture of isomers) [Compound 25, N-(trans-4-aminomethylcyclohexylcarbonyl)-3-(5-bromo-2-pyridyloxy)-DL-phenylalanine 3-methoxypropylamide hydrochloride], the IC50 against human plasmin [1] is 490 µM; on human plasmin [2], 450 µM; on bovine thrombin (setting [3]), more than 1000 µM; at bovine trypsin, more than 150 µM; on human plasma kallikrein, 500 µM; on human urokinase (setting [4]), more than 1000 µM.

In the case of `CCOC(=O)C(Cc1cccc(Oc2ccccc2)c1)NC(=O)[C@H]1CC[C@H](CN)CC1` (mixture of isomers) [Compound 57, N-(trans-4-aminomethylcyclohexylcarbonyl)-3-phenoxy-DL-phenylalanine ethyl ester hydrochloride], the IC50 is 260 µM on human plasmin [1]; 110 µM on human plasmin [2]; more than 1000 µM on bovine thrombin (setting [3]); 25 µM at bovine trypsin; 5.7 µM on human plasma kallikrein; 350 µM on human urokinase (setting [4]).

For the compound `Cc1ccc(NC(=O)C(Cc2cccc(Oc3ccccc3)c2)NC(=O)[C@H]2CC[C@H](CN)CC2)cc1` (stereo partly drawn) [Compound 1], the IC50 is 46 µM against human plasmin [1]; 15 µM at human plasmin [2]; more than 100 µM at bovine thrombin; 15 µM at bovine trypsin; 1.3 µM at human plasma kallikrein; more than 100 µM at human urokinase.

Turning to `CCOC(=O)c1cccc(NC(=O)C(Cc2cccc(Oc3ccccc3)c2)NC(=O)[C@H]2CC[C@H](CN)CC2)c1` (stereo partly drawn) [Compound 3], the IC50 against human plasmin [1] is 31 µM; at human plasmin [2], 11 µM; at bovine thrombin (setting [3]), more than 100 µM; at bovine trypsin, 2.3 µM; on human plasma kallikrein, 1.2 µM; at human urokinase (setting [4]), more than 100 µM.

As for `NC[C@H]1CC[C@H](C(=O)NC(Cc2cccc(Oc3ccccc3)c2)C(=O)Nc2ccccn2)CC1` (stereo partly drawn) [Compound 6], the IC50 against human plasmin [1] is 360 µM; on human plasmin [2], 190 µM; on bovine thrombin it was more than 500 µM; on bovine trypsin it was more than 15 µM; on human plasma kallikrein, 11 µM; on human urokinase (setting [4]), more than 500 µM.

As to `NC[C@H]1CC[C@H](C(=O)NC(Cc2cccc(Oc3ccccc3)c2)C(=O)NCC(=O)c2ccccc2)CC1` (stereo partly drawn) [Compound 15], the IC50 at human plasmin [1] is more than 100 µM; at human plasmin [2], more than 100 µM; on bovine thrombin (setting [3]) it was more than 100 µM; on bovine trypsin, more than 150 µM; on human plasma kallikrein, more than 200 µM; at human urokinase (setting [4]) it was more than 100 µM.

Take `COC(=O)[C@@H](C)NC(=O)C(Cc1cccc(Oc2ccccc2)c1)NC(=O)[C@H]1CC[C@H](CN)CC1` (stereo partly drawn) [Compound 16]: the IC50 against human plasmin [1] is more than 1000 µM; on human plasmin [2] it was more than 1000 µM; at bovine thrombin (setting [3]), more than 1000 µM; on bovine trypsin, more than 150 µM; at human plasma kallikrein, more than 1000 µM; on human urokinase (setting [4]), more than 500 µM.

For `NC[C@H]1CC[C@H](C(=O)NC(Cc2cccc(Oc3ccccc3)c2)C(=O)N2CCC(C(=O)O)CC2)CC1` (stereo partly drawn) [Compound 17], the IC50 at human plasmin [1] is 1000 µM; at human plasmin [2], 570 µM; at bovine thrombin (setting [3]), more than 1000 µM; at bovine trypsin it was more than 150 µM; on human plasma kallikrein, more than 1000 µM; at human urokinase (setting [4]) it was more than 500 µM.

For the compound `CCOC(=O)C1CCN(C(=O)C(Cc2cccc(Oc3ccccc3)c2)NC(=O)[C@H]2CC[C@H](CN)CC2)CC1` (stereo partly drawn) [Compound 18], the IC50 was 430 µM at human plasmin [1]; more than 100 µM at human plasmin [2]; more than 100 µM at bovine thrombin (setting [3]); more than 150 µM on bovine trypsin; more than 500 µM at human plasma kallikrein; more than 1000 µM at human urokinase (setting [4]).

For the compound `NC[C@H]1CC[C@H](C(=O)NC(Cc2cccc(Oc3ccccc3)c2)C(=O)N2CCOCC2)CC1` (stereo partly drawn) [Compound 19], the IC50 was more than 1000 µM against human plasmin [1]; more than 1000 µM at human plasmin [2]; more than 1000 µM at bovine thrombin (setting [3]); more than 150 µM on bovine trypsin; more than 1000 µM on human plasma kallikrein; more than 1000 µM on human urokinase (setting [4]).

Take `COC(=O)[C@H]1CCCN1C(=O)C(Cc1cccc(Oc2ccccc2)c1)NC(=O)[C@H]1CC[C@H](CN)CC1` (stereo partly drawn) [Compound 20]: the IC50 at human plasmin [1] is more than 100 µM; on human plasmin [2], more than 60 µM; at bovine thrombin (setting [3]) it was more than 1000 µM; on bovine trypsin, more than 150 µM; at human plasma kallikrein it was more than 1000 µM; on human urokinase (setting [4]), more than 1000 µM.

Consider `COCCCNC(=O)C(Cc1cccc(C(=O)c2ccccc2)c1)NC(=O)[C@H]1CC[C@H](CN)CC1` (stereo partly drawn) [Compound 23], for which the IC50 against human plasmin [1] was 750 µM; at human plasmin [2], 620 µM; at bovine thrombin (setting [3]) it was more than 1000 µM; on bovine trypsin it was 8.2 µM; at human plasma kallikrein it was 350 µM; at human urokinase (setting [4]), more than 500 µM.

Turning to `NC[C@H]1CC[C@H](C(=O)NC(Cc2cccc(C(=O)c3ccccc3)c2)C(=O)N2CCOCC2)CC1` (stereo partly drawn) [Compound 24], the IC50 on human plasmin [1] is more than 1000 µM; on human plasmin [2], 700 µM; at bovine thrombin (setting [3]) it was more than 1000 µM; on bovine trypsin it was more than 150 µM; at human plasma kallikrein, more than 1000 µM; on human urokinase (setting [4]), more than 1000 µM.

For `CCOC(=O)C1CCCCN1C(=O)C(Cc1cccc(Oc2ccc(Br)cn2)c1)NC(=O)[C@H]1CC[C@H](CN)CC1` (stereo partly drawn) [Compound 26], the IC50 at human plasmin [1] is more than 1000 µM; at human plasmin [2], 400 µM; at bovine thrombin (setting [3]), more than 1000 µM; at bovine trypsin it was more than 150 µM; on human plasma kallikrein, more than 1000 µM; at human urokinase (setting [4]), more than 1000 µM.

With `NC[C@H]1CC[C@H](C(=O)NC(Cc2cccc(Oc3ccc(Br)cn3)c2)C(=O)N2CCOCC2)CC1` (stereo partly drawn) [Compound 27], the IC50 was 280 µM against human plasmin [1]; 440 µM at human plasmin [2]; more than 1000 µM on bovine thrombin (setting [3]); more than 150 µM on bovine trypsin; more than 1000 µM at human plasma kallikrein; more than 1000 µM on human urokinase (setting [4]).
